In patent US20190374601A1, “METHODS FOR TREATING FUNGAL INFECTIONS” (priority 2017, published 2019):
Values joined by “and” are separate entries in the source; they are usually repeats but may differ in a detail not shown here. Equal values may be shown once. Starred links: 1 amine or outer side, 2 acyl side, 3 side chain; linkers in the order of their positions; H or OH if unused. Positions of bridges follow the written chain, without caps; N, C: chain ends. Non-standard residues stand in square brackets, D forms with d. Residues, ends and D or L forms follow the SMILES beside them. *: point of attachment. Orn(4R-OH,5R-OCH2CH2NMe3+) = C[N+](C)(C)CCO[C@@H](N[*:3])[C@H](O)C[C@H](N[*:1])C(=O)[*:2]; pTerphenylCO(4''-OnC5H11) = CCCCCOc1ccc(-c2ccc(-c3ccc(C(=O)*)cc3)cc2)cc1; hTyr(3S-OH,4S-OH) = N[C@H](C(=O)O)[C@H](O)[C@@H](O)c1ccc(O)cc1; Pro(3S-OH,4S-Me) = C[C@H]1CN[C@H](C(=O)O)[C@H]1O; Hyp = O=C(O)[C@@H]1C[C@@H](O)CN1

Assays:
Type in all cases: in vivo
[1] = tested on: T. mentagrophytes ATCC 24953; assay: Hair root invasion test (mycological evaluation), T. mentagrophytes dermatophytosis guinea pig model, Example 1; settings: evaluated study day 10, relative to vehicle control
Description: (§1) A request was made to the Animal Resource Center (ARC) at Case Western Reserve University to order the required number of male albino Harlan-Sprague-Dawley Guinea-Pigs (San Diego, Calif.) with a body weight of 450-500 g. Animals were allowed to acclimate for a minimum of 5 days prior to use. Environmental controls for the animal room were set to maintain a temperature of 16 to 22° C., a relative humidity of 30-70%, and a 12:12 light-dark cycle.
(§2) T. mentagrophytes ATCC 24953 was used as the infecting fungus. This strain was selected because it can cause skin infection and results in inflammatory reaction.
(§3) T. mentagrophytes (from frozen stock) was sub-cultured on Potato Dextrose Agar plates and incubated at 30° C. for 5-7 days. The colonies were scraped from the plates using sterile normal saline (NaCl 0.85%) solution. After washing for three times with sterile saline the conidia were re-suspended in the same solution. Ten-fold dilutions of conidia suspension were prepared and counted using a hemacytometer. Working suspension of conidia was prepared at a final concentration of 1×10^7 Colony Forming Units (CFUs)/100 μL in normal saline.
(§4) Each animal was anesthetized with a cocktail of xylazine and ketamine: 0.2 mL intramuscularly. Using an electric shaver, hair was clipped on left side of the guinea pig back. A closer shave was done with a disposable razor. Using a stencil, a square of 2.5 cm×2.5 cm was marked. The marked skin area was abraded with sterile fine grit sandpaper. A cell suspension containing 1×10^7 conidia in 100 μL was applied and rubbed thoroughly on the abraded skin.
(§5) Beginning two hours post inoculation, animals were treated subcutaneously (SQ) for CD101 and orally (PO) terbinafine once daily for a period of nine days, or once a week on days 1 and 8.
(§6) Study Day 1: Infected the animals with T. mentagrophytes and begin treatments.
(§7) Study Day 9 (treatment day 9): End treatments.
(§8) Study Day 10: Clinical evaluation of the four quadrants in the marked area was done. Hair samples were obtained from each quadrant (10 per quadrant). Hairs were planted in Potato Dextrose Agar, and incubated for 48 h for mycological evaluation. Procedures for clinical and mycological evaluations are described below.
(§9) CD101 was administered SQ in 0.3 mL, while the terbinafine was given orally in 0.3 mL. Vehicle treated group was also included.
Hair samples were removed with a sterile forceps from four quadrants. Ten hair samples from each quadrant were inoculated onto the corresponding quadrant on the Potato Dextrose agar plate and incubated at 30° C. for 2 days. The fungal growth at the hair root was examined under a stereomicroscope. The effectiveness of a compound in reducing the number of mycologically positive hair sample per treated group is expressed as percentage relative to the vehicle control group of animals using the following formula:
where, T=Positive hair in the test group, K=Positive hair in the Untreated control.

[2] = tested on: T. mentagrophytes ATCC 24953; assay: Clinical evaluation of infected skin, T. mentagrophytes dermatophytosis guinea pig model, Example 1; settings: for Percent Efficacy Clinical: evaluated study day 10, relative to vehicle control
Description: as §1, §2, §3, §4, §5, §6, §7, §8, §9
Clinical assessment of local changes of the infected skin area was scored as follows:
1=Few slightly erythematous places on the skin
2=Well-defined redness, swelling with bristling hairs.
3=Large areas or marked redness incrustation, scaling, bald patches, ulcerated in places.
4=Partial damage to the integument and loss of hair
5=Extensive damage to the integument and complete loss of hair at the site of infection.
Any other local skin reactions were noted. The assessment of clinical evaluation in the change of scores per treatment group is expressed as percentage relative to the vehicle control group of animals using the following formula:
where, T=Scores in the test group. K=Scores in the untreated control

[3] = Tissue concentration of subcutaneously injected CD101 in cynomolgus monkeys; settings: for CD101 Concentration: individual animals, at necropsy; for Mean Concentration: mean of males and females
Description: In this study, the tissue concentration of subcutaneously injected CD101 was evaluated in cynomolgus monkeys.
(§10) Dose levels were 30, 60, and 120 mg/kg/dose for Groups 2, 3, and 4, respectively. […] The dose volumes were 1.2, 0.3, 0.6, and 1.2 mL/kg spread evenly over 4, 1, 2, and 4 dose sites for Groups 1-4, respectively, on each day of dosing. The control and 120 mg/kg/dose groups each consisted of 5 males and 5 females, and the 30 and 60 mg/kg/dose groups each consisted of 3 males and 3 females.
(§11) The animals were observed twice daily for mortality and moribundity. Clinical examinations were performed once daily for at least 6 consecutive days, including the day of randomization, prior to randomization, prior to dosing, 1-2 hours postdosing, once daily on nondosing days, and once daily during the recovery period. Detailed physical examinations were performed at least weekly during the acclimation period until randomization, on the day of randomization, weekly (±2 days) during the study period, and on the day of the scheduled necropsies. Injection site (IS) observations were performed prior to dosing (dose sites that were utilized on that day of dosing), 1-2 hours postdosing (dose sites that were utilized on that day of dosing), once daily on nondosing days (dose sites that had been previously been utilized), and twice weekly during the recovery period. Individual body weights were recorded weekly (±2 days). Individual body weights were collected at least weekly during the acclimation period until randomization, on the day of randomization, Study Day 0 (prior to dosing), weekly (2±days) during the study period, on the day prior to the day of the scheduled necropsies (nonfasted) and on the day of the scheduled necropsies (fasted). Clinical pathology parameters (hematology, coagulation, serum chemistry, and urinalysis) were analyzed during acclimation prior to randomization (Study Day −15), and on the day of the primary (Study Day 17) and recovery (Study Day 45) necropsies. Blood samples for toxicokinetic evaluation were collected from all animals/sex/group/time point prior to dose administration and at approximately 1, 2, 4, 8, 24, 48, and 72 hours after dose administration on Study Days 0 and 12. Complete necropsies were performed on all animals, and selected organs were weighed at the scheduled necropsies. Selected tissues were examined microscopically from all animals. Fingernail, toenail, nail bed, and abdominal skin samples were collected from all animals at the scheduled necropsies for bioanalytical analysis.

[4] = Toxicokinetic evaluation (plasma) after subcutaneous injection in cynomolgus monkeys
Description: as §10, §11

[5] = 35 mg/kg SQ daily for nine days
[6] = 35 mg/kg SQ once a week (days 1 and 8)

## CCCCCOc1ccc(-c2ccc(-c3ccc(C(=O)N[C@H]4C[C@@H](O)[C@@H](OCC[N+](C)(C)C)NC(=O)[C@@H]5[C@@H](O)[C@@H](C)CN5C(=O)[C@H]([C@@H](C)O)NC(=O)[C@H]([C@H](O)[C@@H](O)c5ccc(O)cc5)NC(=O)[C@@H]5C[C@@H](O)CN5C(=O)[C@H]([C@@H](C)O)NC4=O)cc3)cc2)cc1 [CD101] ({pTerphenylCO(4''-OnC5H11)}-[Orn(4R-OH,5R-OCH2CH2NMe3+)]T[Hyp][hTyr(3S-OH,4S-OH)]T[Pro(3S-OH,4S-Me)]; lactam 1-C)
[1]; [5]
  Percent Efficacy Mycological: 88.0%
[1]; [6]
  Percent Efficacy Mycological: 85.5%
[2]; [5]
  Percent Efficacy Clinical: 84.0%
[2]; [6]
  Percent Efficacy Clinical: 78.7%
[2]; guinea pigs, 35 mg/kg SQ daily and weekly
  clinical signs versus vehicle control group: fewer clinical signs than the vehicle control group beginning on day 5 post inoculation
[2]; guinea pigs, 35 mg/kg SQ daily or once a week
  injection site reaction: no bruising or redness was noted at the injection site
[3]; Fingernail bed, 30 mg/kg/dose SC once every 3 days (5 doses), 30 mg/kg
  CD101 Concentration: 168 µg/g and 160 µg/g and 92.5 µg/g and 75.9 µg/g and 71.9 µg/g and 48.6 µg/g
[3]; Fingernail bed, 30 mg/kg/dose SC
  Mean Concentration: 103 µg/g
[3]; Fingernail bed, 60 mg/kg/dose SC once every 3 days (5 doses), 60 mg/kg
  CD101 Concentration: 218 µg/g and 96.7 µg/g and 251 µg/g and 159 µg/g and 175 µg/g and 184 µg/g
[3]; Fingernail bed, 60 mg/kg/dose SC
  Mean Concentration: 181 µg/g
[3]; Fingernail bed, 120 mg/kg/dose SC once every 3 days (5 doses), 120 mg/kg
  CD101 Concentration: 1351 µg/g and 404 µg/g and 67.1 µg/g and 129 µg/g and 346 µg/g and 332 µg/g and 330 µg/g and 147 µg/g and 283 µg/g and 114 µg/g
[3]; Fingernail bed, 120 mg/kg/dose SC
  Mean Concentration: 350 µg/g
[3]; Fingernail, 30 mg/kg/dose SC once every 3 days (5 doses), 30 mg/kg
  CD101 Concentration: 106 µg/g and 118 µg/g and 63.6 µg/g and 60.8 µg/g and 74.2 µg/g
[3]; Fingernail, 60 mg/kg/dose SC once every 3 days (5 doses), 60 mg/kg
  CD101 Concentration: 194 µg/g and 108 µg/g and 527 µg/g and 171 µg/g and 155 µg/g and 175 µg/g
[3]; Fingernail, 60 mg/kg/dose SC
  Mean Concentration: 222 µg/g
[3]; Fingernail, 120 mg/kg/dose SC once every 3 days (5 doses), 120 mg/kg
  CD101 Concentration: 266 µg/g and 264 µg/g and 445 µg/g and 469 µg/g and 239 µg/g and 244 µg/g and 269 µg/g and 459 µg/g and 348 µg/g and 339 µg/g
[3]; Fingernail, 120 mg/kg/dose SC
  Mean Concentration: 334 µg/g
[3]; Skin, 30 mg/kg/dose SC once every 3 days (5 doses), 30 mg/kg
  CD101 Concentration: 38.2 µg/g and 44.4 µg/g and 43.7 µg/g
[3]; Skin, 60 mg/kg/dose SC once every 3 days (5 doses), 60 mg/kg
  CD101 Concentration: 108 µg/g and 66.2 µg/g and 99.6 µg/g and 48.8 µg/g and 81.7 µg/g and 82.0 µg/g
[3]; Skin, 60 mg/kg/dose SC
  Mean Concentration: 81.0 µg/g
[3]; Skin, 120 mg/kg/dose SC once every 3 days (5 doses), 120 mg/kg
  CD101 Concentration: 133 µg/g and 132 µg/g and 32.0 µg/g and 12.2 µg/g and 141 µg/g and 151 µg/g and 77.6 µg/g and 43.1 µg/g and 135 µg/g and 15.9 µg/g
[3]; Skin, 120 mg/kg/dose SC
  Mean Concentration: 87.3 µg/g
[3]; Toenail bed, 30 mg/kg/dose SC once every 3 days (5 doses), 30 mg/kg
  CD101 Concentration: 76.9 µg/g and 102 µg/g and 50.5 µg/g and 86.1 µg/g and 82.9 µg/g
[3]; Toenail bed, 30 mg/kg/dose SC
  Mean Concentration: 74.7 µg/g
[3]; Toenail, 30 mg/kg/dose SC once every 3 days (5 doses), 30 mg/kg
  CD101 Concentration: 76.0 µg/g and 74.2 µg/g and 126 µg/g and 58.8 µg/g and 42.8 µg/g and 38.3 µg/g
[3]; Toenail, 30 mg/kg/dose SC
  Mean Concentration: 69.3 µg/g
[3]; Toenail, 60 mg/kg/dose SC once every 3 days (5 doses), 60 mg/kg
  CD101 Concentration: 265 µg/g and 86.7 µg/g and 198 µg/g and 106 µg/g and 160 µg/g and 79.2 µg/g
[3]; Toenail, 60 mg/kg/dose SC
  Mean Concentration: 149 µg/g
[3]; Toenail, 120 mg/kg/dose SC once every 3 days (5 doses), 120 mg/kg
  CD101 Concentration: 268 µg/g and 182 µg/g and 360 µg/g and 162 µg/g and 416 µg/g and 173 µg/g and 206 µg/g and 318 µg/g and 190 µg/g and 193 µg/g
[3]; Toenail, 120 mg/kg/dose SC
  Mean Concentration: 247 µg/g
[4]; 30 mg/kg/dose SC once every 3 days, males and females combined
  combined accumulation ratio (plasma): 3.18
[4]; 60 mg/kg/dose SC once every 3 days, males and females combined
  combined accumulation ratio (plasma): 2.70
[4]; 120 mg/kg/dose SC once every 3 days, males and females combined
  combined accumulation ratio (plasma): 2.67
[4]; Study Day 0, postdose, SC
  time by which concentrations reached maximum or near maximum observed values: ≤ 8 h
[4]; Study Day 12, 30 to 120 mg/kg/dose SC
  increase of combined exposure (AUC0-72 and Cmax) over a 4-fold dose change: approximately 3 fold
[4]; Study Day 12 predose, SC once every 3 days
  predose concentration on Study Day 12 relative to Study Day 0 Cmax: approximately 2 fold
[4]; both sexes, cynomolgus monkey, plasma, range across the 30 to 120 mg/kg groups, males and females combined, SC
  Cmax: 21000 to 65100 ng/mL
[4]; both sexes, cynomolgus monkey, plasma, range across the 30 to 120 mg/kg groups, males and females combined, SC, read-out: AUC0-72
  AUC(0-t): 1360 to 4320 µg·h/mL
